Test results: US20080102111A1, “Anticancer Composition for Oral Use Comprising Liposome Containing Phytosterols and Prevention or Treatment for Cancer Using the Liposome” (priority 2005, published 2008)

System: B16BL6 melanoma cells
Assay: Metastasis-inhibiting activity in B16BL6 melanoma cells by the liposome compositions (lung colony count)
Format: in vivo, C57BL6/J mice
Details: lung surface colonies on 21st day; 0.2 mL oral once per day up to 6th day; B16BL6 cells i.v. 3×10^4/animal on 7th day
Method: Twenty 5-week old C57BL6/J mice were divided into four groups. The control group received 0.2 mL phosphate-buffered physiological saline (PBS) once per day by forced oral administration up to and including the 6th day of keeping. In like manner, the liposome composition of Example 1 was orally administered instead of the PBS to the group designated as the liposomized β-sitosterol group; an aqueous suspension of ordinary, unliposomized β-sitosterol (contained the same amount of β-sitosterol as the liposomized β-sitosterol administered to the liposomized β-sitosterol group) was orally administered instead of the PBS to the group designated as the β-sitosterol group; and the liposome composition of Comparative Example 1 was orally administered instead of the PBS to the group designated as the liposomized cholesterol group. B16BL6 melanoma cells suspended in serum-free medium were administered intravenously (3×10^4/0.2 ml/animal) on the 7th day of keeping. The mice were dissected on the 21st day of keeping and the lungs were extirpated; the lung surfaces were inspected and the number of colonies was counted.

SMILES: CC[C@H](CC[C@@H](C)[C@H]1CC[C@H]2[C@@H]3CC=C4C[C@@H](O)CC[C@]4(C)[C@H]3CC[C@]12C)C(C)C [β-Sitosterol, β-sitosterol]
- Average number of colonies: 43
